This note sets out measurements from patent US20240360144A1, “PYRAZOLOPYRIMIDINE ESTER COMPOUND” (Shanghai Maius Pharmaceutical Co. Ltd., priority 2021, published 2024).

The data set can be described thus: Pharmacokinetic assays of compounds after oral gavage administration to rats. Conditions: for AUC as percentage of that of 4-AAM administered at the same molar amount: relative to 4-AAM directly administered. Set-up: AUMC(0-t) / AUMC(0-∞): unit not given here. It is filed as in vivo, male SD rats. As to the method:
Example 13: Pharmacokinetic Assays of Compounds
Instruments: ultra high performance liquid chromatography (Acquity UPLC, Waters) system; triple quadrupole mass spectrometer (Qtrap 5500, Sciex); high-speed refrigerated centrifuge (5430R, Eppendorf).
Chromatography Conditions: Column: Waters BEH C18 2.1×50 mm ([…]); Column Temperature: 45° C.; Mobile Phase: 0.1% aqueous solution of formic acid (A)/acetonitrile; Gradient: see Table 2 below: […]
Mass Spectrometry Condition: Mode: positive ion multiple reaction monitoring (MRM); Curtain Gas: 45 psi; Gas 1: 45 psi; Gas 2: 45 psi; Ion Source Temperature: 500° C.; Ion Source Voltage: 5000 V.
Experimental Animals: male SD rats, weighing 200-240 grams, fasting overnight before experiments.
Each suspension is prepared before administration.
Each sample was placed in an ice bath, centrifuged for plasma collection, frozen and stored.
Plasma Drug Concentration Data and Calculation of Pharmacokinetic Parameters:
Plasma drug concentration data was processed using MultiQuan 3.0 (Sciex), and pharmacokinetic parameters were calculated using the DAS 2.0 software. Plasma drug concentrations were measured in ug/L.

Setting [1] is: male SD rats, oral gavage, 30.0 mg/kg, suspension in 0.5% CMC-Na, plasma.

By AUC(0-t) is commonly meant the area under the concentration-time curve up to a stated or last time point. The Cmax is the highest concentration seen after dosing. Broadly, the Tmax is the time from dosing to the highest level. Broadly, the AUC(0-inf) is the area under the concentration-time curve extrapolated to infinity.

Where two headings read alike, the source gives them in different places.

In the case of `C=CC(=O)N1CCC[C@@H](n2nc(-c3ccc(Oc4ccccc4)cc3)c3c(NC(=O)OC(C)C)ncnc32)C1` [Compound 1], under setting [1], the area under the curve AUC(0-t) worked out at 1038.6 ng·h/mL, the “AUC(0-∞)” value amounted to 1059.6 ng·h/mL, the “AUMC(0-t)” value is recorded as 2950.4 and the “AUMC(0-∞)” value worked out at 3200.9. For the same molecule, under setting [1], the CLz/F was found to be 472 mL/min/kg, the Cmax came to 257.2 ng/mL, the “MRT(0-t)” value amounted to 2.8 h and the “MRT(0-∞)” value worked out at 3.0 h. Besides, under setting [1], the Tmax is on record as 1.0 h, the “VRT(0-t)” value is recorded as 4.6 h^2, the “VRT(0-∞)” value turned out to be 6.3 h^2 and the t½z was found to be 1.7 h. Moreover, for the setting “rats, oral gavage”, the mean retention time is 2.8 h and the “time to peak concentration” value was 1 h. Also, the “AUC compared with 4-AAM administered at the same molar amount” value (shortened to “AUC compared with 4-AAM administered”) (rats, oral gavage, in words) was “much greater AUC”.
Take `C=CC(=O)N1CCC[C@@H](n2nc(-c3ccc(Oc4ccccc4)cc3)c3c(NC(=O)OCCC)ncnc32)C1` [Compound 2]: under setting [1], the “AUC(0-t)” value was found to be 663.0 ng·h/mL, the “AUC(0-∞)” value stood at 706.3 ng·h/mL, the “AUMC(0-t)” value amounted to 2844.3 and the “AUMC(0-∞)” value is on record as 3495.04. Under setting [1], the CLz/F turned out to be 708 mL/min/kg, the Cmax amounted to 111.0 ng/mL, the “MRT(0-t)” value is 4.29 h and the “MRT(0-∞)” value was found to be 4.9 h. Moreover, under setting [1], the time to peak (Tmax) is recorded as 2.0 h, the “VRT(0-t)” value was found to be 7.2 h^2, the “VRT(0-∞)” value is reported as 13.5 h^2 and the t½z was 2.338 h. Also, where the note is “rats, oral gavage”, the mean retention time worked out at 4.3 h, the “time to peak concentration” value came to 2 h and the “AUC as percentage of that of 4-AAM administered at the same molar amount” value (“AUC as percentage” below) was determined as 88%.
For `C=CC(=O)N1CCC[C@@H](n2nc(-c3ccc(Oc4ccccc4)cc3)c3c(NC(=O)OCCCC)ncnc32)C1` [Compound 3], under setting [1], the “AUC(0-t)” value is 1366.7 ng·h/mL, the “AUC(0-∞)” value amounted to 1375.6 ng·h/mL, the “AUMC(0-t)” value is 3939.9 and the “AUMC(0-∞)” value is given as 4052.0. Further, under setting [1], the CLz/F is 363 mL/min/kg, the highest concentration (Cmax) worked out at 304.4 ng/mL, the “MRT(0-t)” value worked out at 2.9 h and the “MRT(0-∞)” value is given as 2.9 h. Also, under setting [1], the Tmax is listed as 2.0 h, the “VRT(0-t)” value is on record as 3.3 h^2, the “VRT(0-∞)” value is reported as 3.8 h^2 and the t½z turned out to be 1.3 h. Further, where the note is “rats, after oral absorption, in words”, the “hydrolysis in the blood plasma into the 4-amino active metabolite (4-AAM)” value is on record as “highest rate”. Besides, for the setting “rats, oral gavage”, the mean retention time stood at 2.9 h, the “time to peak concentration” value was found to be 2 h and the “AUC as percentage” value is reported as 180%. The “AUC compared with 4-AAM administered” value (rats, oral gavage, in words) was “much greater AUC”.
`C=CC(=O)N1CCC[C@@H](n2nc(-c3ccc(Oc4ccccc4)cc3)c3c(N)ncnc32)C1` [Compound 4-AAM, 1-[(3R)-3-[4-amino-3-(4-phenoxyphenyl)-1H-pyrazolo[3,4-D]pyrimidin-1-yl]-1-piperidinyl]-2-propen-1-one, reference compound]: under setting [1], the “AUMC(0-t)” value amounted to 1316.6, the “AUMC(0-∞)” value amounted to 2805.6, the “VRT(0-t)” value worked out at 2.0 h^2 and the “VRT(0-∞)” value is given as 47.6 h^2. This molecule registered a t½z under setting [1] of 8.9 h. Also, the AUC(0-inf) (rat, male SD rats, oral gavage, 30.0 mg/kg, suspension in 0.5% CMC-Na, plasma) was determined as 822 ng·h/mL. Further, the exposure AUC(0-t) (rat, male SD rats, oral gavage, 30.0 mg/kg, suspension in 0.5% CMC-Na, plasma, read-out: AUC(0-t)) was determined as 758 ng·h/mL. Also, the Cmax (rat, male SD rats, oral gavage, 30.0 mg/kg, suspension in 0.5% CMC-Na, plasma, read-out: Cmax) came out at 312 ng/mL. Besides, the MRT last (rat, male SD rats, oral gavage, 30.0 mg/kg, suspension in 0.5% CMC-Na, plasma, read-out: MRT(0-t)) came to 1.7 h. In addition, where the note is “rat, male SD rats, oral gavage, 30.0 mg/kg, suspension in 0.5% CMC-Na, plasma, read-out: MRT(0-∞)”, the MRT inf is 3.4 h.
Regarding `C=CC(=O)N1CCC[C@@H](n2nc(-c3ccc(Oc4ccccc4)cc3)c3c(NC(=O)OCC(C)C)ncnc32)C1` [Compound 4], under setting [1], the exposure AUC(0-t) came out at 964.1 ng·h/mL, the “AUC(0-∞)” value was 976.4 ng·h/mL, the “AUMC(0-t)” value amounted to 2405.5 and the “AUMC(0-∞)” value amounted to 2586.7. In addition, under setting [1], the CLz/F was found to be 512 mL/min/kg, the Cmax turned out to be 256.7 ng/mL, the “MRT(0-t)” value came out at 2.5 h and the “MRT(0-∞)” value amounted to 2.6 h. Moreover, under setting [1], the Tmax stood at 2.0 h, the “VRT(0-t)” value is recorded as 2.9 h^2, the “VRT(0-∞)” value was found to be 4.8 h^2 and the t½z turned out to be 2.5 h. Besides, where the note is “rats, oral gavage”, the mean retention time was 2.5 h, the “time to peak concentration” value is 2 h and the “AUC as percentage” value amounted to 127%. Besides, the “AUC compared with 4-AAM administered” value (rats, oral gavage, in words) is “much greater AUC”.
Regarding `C=CC(=O)N1CCC[C@@H](n2nc(-c3ccc(Oc4ccccc4)cc3)c3c(NC(=O)OCCCCCC)ncnc32)C1` [Compound 5], under setting [1], the “AUC(0-t)” value came out at 584.0 ng·h/mL, the “AUC(0-∞)” value amounted to 587.1 ng·h/mL, the “AUMC(0-t)” value came to 1659.5 and the “AUMC(0-∞)” value is recorded as 1696.7. Moreover, under setting [1], the CLz/F worked out at 852 mL/min/kg, the Cmax is 143.9 ng/mL, the “MRT(0-t)” value worked out at 2.8 h and the “MRT(0-∞)” value is 2.9 h. Besides, under setting [1], the time of peak concentration (Tmax) is recorded as 2.0 h, the “VRT(0-t)” value stood at 3.0 h^2, the “VRT(0-∞)” value amounted to 3.5 h^2 and the t½z is reported as 1.3 h.
